Source: ChEMBL document CHEMBL3046230, “Diversity and antifeedant activity of diterpenes from Turkish species of Sideritis” (2000)

Tests used:
Assay type in all cases: functional
Spodoptera frugiperda = test: Antifeedant activity against Spodoptera frugiperda (fall armyworm) assessed as feeding index at 100 ppm after 18 hr relative to control
Spodoptera littoralis [1] = test: Antifeedant activity against Spodoptera littoralis assessed as feeding index at 100 ppm after 18 hr relative to control
Spodoptera littoralis [2] = test: Phagostimulant activity against Spodoptera littoralis assessed as feeding index at 100 ppm after 18 hr relative to control

Row | Structure (SMILES) | AFI (Spodoptera frugiperda) [%] | AFI (Spodoptera littoralis [1]) [%] | FI (Spodoptera littoralis [2])
1 | C[C@]1(CO)CCC[C@]2(C)[C@H]1C[C@H](O)[C@@]13C[C@@H](CC[C@@H]21)[C@]1(C)O[C@@H]13 [SIDEROXOL] | 54 | 9 | 
2 | CC(=O)OC[C@]1(C)[C@H]2C[C@H](O)[C@]34C=C(C)[C@H](CC[C@H]3[C@]2(C)CC[C@H]1O)C4 | 12 |  | 
3 | C=C1C[C@@]23C[C@@H]1CC[C@H]2[C@]1(C)CC[C@@H](O)[C@](C)(COC(C)=O)[C@@H]1C[C@@H]3O [LINEAROL] | 8 |  | 
4 | CC1=C[C@]23C[C@H]1CC[C@H]2[C@]1(C)CCC[C@](C)(CO)[C@H]1C[C@@H]3O | 13 | 27 | 
5 | C=C1C[C@]23C[C@H]1CC[C@H]2[C@]1(C)CC[C@@H](O)[C@](C)(CO)[C@H]1C[C@@H]3O | 21 |  | 52
